Reference: patent US20110008396A1, “COMPOSITIONS AND METHODS FOR TREATING CARDIOVASCULAR CONDITIONS” (Rutgers, the Sate University of New Jersey, priority 2007, published 2011)
“Also recorded” adds a separate entry of the source.

Legend:
[1] = tested on: THP-1 macrophages; test: GW internalization study (multiphoton imaging); type: cell-based, human; details: 5 hr, polymer 10^-6 M
Description: In brief, differentiated THP-1 macrophages were incubated with NAPs at 10^−6 M and/or 10^−7M GW3965 for 5 hr in serum-free RPMI at 37° C. Cells were washed and fixed and multiphoton imaging to detect internalized GW3965 was performed on a Leica TCS SP2 system (Leica Microsystems, Inc., Exton, Pa.). The cells were illuminated using a titanium: sapphire femtosecond laser with a tunable wavelength from 780 nm to 920 nm (Mai Tai, repetition rate 80 Mhz, 100 fs pulse duration, 800 mW) and 470-500 nm emission.

[2] = tested on: THP-1 macrophages; test: hoxLDL efflux from macrophage cells; type: cell-based, human; details: GW3965 10^-8 M, NAPs 10^-6 M
Description: THP-1, human monocytes, are grown in suspension, with RPMI medium containing 0.4 mM Ca^2+ and Mg^2+, (ATCC) and supplemented with 10% FBS, in an incubator with 5% CO2 at 37 C and split every four days through centrifugation. The cells are seeded at a concentration of 100,000 cells/cm^2 to continue monocyte cultures and to differentiate the cells into macrophage cells. Once the monocytes have been differentiated into macrophage cells they will become adherent and can be tested. The macrophage cells can not be propagated and will be used within a week of differentiation.
Highly oxidized LDL will be oxidized within five days of each experiment. BODIPY-labeled and unlabeled human plasma derived LDL (Molecular Probes, OR) is oxidized by 18 hours of incubation with 10 uM CuSO4 (Sigma) at 37 C with 5% CO2. (Oorni 1997; Chang 2001) The oxidation will be stopped with 0.01% w/v EDTA after the 18 hours.
The efflux of hoxLDL by macrophage cells was assayed by incubating fluorescently labeled hoxLDL (10 ug/mL) with cells for 2 hours at 37 C and 5% CO2. […] The images were analyzed with Image Pro Plus 5.1 software (Media Cybernetics, San Diego, Calif.) and normalized with cell number and compared to the control sample wherein no NAPs or ligand was administered.

[3] = tested on: LXRalpha; details: GW3965 at concentrations as high as 1*10^-6 M; cited from earlier work
[4] = tested on: THP-1 macrophages; test: Efflux of high density lipoproteins (HDL secretion); type: cell-based, human; details: macrophages pre-loaded with hoxLDL 30 μg/ml, ApoA1 present
Description: In brief, differentiated THP-1 macrophages were pre-incubated with 30 μg/ml highly oxidized LDL at 37° C. in serum-free RPMI 1640 for 24 hr. Next, NAPs at 10^−6 M and 10 ug/mL ApoA1 with or without 10^−7 M GW3965 were added to each well and incubated for a further 24 hours. The cell medium was then removed for analysis using the Biovision HDL and LDL/VLDL Cholesterol Quantification kit (BioVision, CA). The remaining macrophages were lysed using 0.03 g sodium dodecyl sulfate (SDS) in 30 ml sodium hydroxide (NaOH, 0.1N). The protein content was measured with the Modified Lowry protein assay (Pierce, Ill.) and the HDL secretion results were normalized per mg cell protein.

[5] = tested on: ABCA1; details: GW3965 at concentrations as high as 1*10^-6 M; cited from earlier work

O=C(O)Cc1cccc(OCCCN(Cc2cccc(C(F)(F)F)c2Cl)CC(c2ccccc2)c2ccccc2)c1 [GW3965]
internalization of GW3965 by macrophages (multiphoton images, in words) [1]: minimal uptake; also recorded: no drug uptake | hoxLDL efflux (in words) ([2]; 5 hours): not effective | less hoxLDL within the cells / cholesterol released (efflux) versus nothing administered ([2]; hoxLDL 10 ug/mL 2 h, then test condition 5 h): 4% | LXRalpha increase in HepG2 cells [3]: ≤ 3 fold | HDL secreted versus 100 percent baseline (in words) [4]: not significantly different | ABCA1 increase in HepG2 cells [5]: ≤ 6 fold
